Source: a melting point compilation (Tetko et al.; mined from patent text by program, amines drawn as free bases though some values may be those of a salt)

| SMILES | melting point [°C] |
| --- | --- |
| CC(OCc1ccc(-c2ccccc2)cc1)C(=O)NO (stereo unspecified) | 120 to 123 |
| C=CCS(=O)(=O)c1cccnc1S(=O)(=O)NC(=O)Nc1nc(OC)cc(OC)n1 | 185 |
| C=CCNc1nc(C)ccc1C(=O)OC | 140 to 142 |
| O=C(O)c1ccc(-c2nc(-c3ccc(C(F)(F)F)cc3)co2)cc1 | 258 to 259 |
| O=C(c1cccs1)N(CCCCn1ccnc1)C1=Nc2cccc3cccc1c23 | 76 to 80 |
| CN(CCC(=O)Nc1ccc2[nH]ncc2c1)Cc1ccccc1 | 140 to 141 |
| CC(=O)NCCCc1nc2cc(C3=NNC(=O)CC3C)ccc2[nH]1 (stereo unspecified) | 244 to 246 |
| O=C(O)CCCCCCCCCCn1nnnc1S | 95 to 98 |
| Nc1ccc(C(=S)N2CCCCC2)cc1 | 162 to 164 |
| C[C@@H](NC(=O)c1c[nH]c2ncc(-c3nn(C)c4cc(F)ccc34)nc12)C1(C#N)CCCC1 | 300 to 315 |
| O=C(O)C1=Cc2cc(-c3ccccc3)ccc2OC1C(F)(F)F (stereo unspecified) | 197 to 198 |
| COc1ccc(C=C(C)[N+](=O)[O-])c(OC)c1OC | 57 to 58 |
| O=C(Cc1ccccc1)NC1CN(C(C(=O)OCc2ccccc2)c2ccccc2)C1=O (stereo unspecified) | 96 to 98 |
| COc1cc(C(=O)c2ncc3ccc(C(=O)O)cn23)ccc1[N+](=O)[O-] | 313 |
| COc1ccc(-c2cc3ccccc3[nH]2)cc1NCc1ccc([N+](=O)[O-])c(O)c1 | 134 to 135 |
| Nc1ccc(-c2nc3ccccc3o2)cc1I | 188 to 191 |
| CCc1nc2c(o1)C(=O)C=C(Nc1ccc(F)cc1)C2=O | 232 |
| COc1cc(N)c(Cl)cc1C(=O)CCC1CCN(C(=O)OC(C)(C)C)CC1 | 133 to 134 |
| COc1ccccc1N1CCc2c(Cl)nc3c(OC)cccc3c21 | 99 to 101 |
| CC1=C(CC(NC(=O)c2ccc(Cl)cc2)NC(=N[N+](=O)[O-])Nc2cccnc2)C(C)(C)CCC1 (stereo unspecified) | 217 to 218 |
| N=C(NCc1cccnc1)NN=Cc1c(Cl)cccc1Cl | 148 to 151 |
| CCc1cc(Nc2cc(Cl)c(C(F)(F)F)cc2[N+](=O)[O-])c(OC)cc1OC | 161 to 162 |

| SMILES | melting point [°C] |
| --- | --- |
| ClCCOc1ccc([C@H]2c3ccc(OCc4ccccc4)cc3OC[C@H]2c2ccccc2)cc1 (racemic) | 66 to 70.6 |
| COc1cc2c(nc1OC)c(-c1cc3c(Cl)c(F)cnc3[nH]1)cn2CCN1CCOCC1 | 206 |
| c1ccc(COC2CCN(Cc3cc4ccccc4[nH]3)CC2)cc1 | 103 to 105 |
| CNC(=S)NCCSCc1ncccc1N | 99.5 |
| N=C(Nc1ccccc1)N1CCC1 | 116 to 119 |
| COC(CN(C)C(=O)Nc1nnc(C(C)Oc2cccc(Cl)c2)s1)OC (stereo unspecified) | 127 to 130 |
| O=C(Nc1ccc(Oc2ccnc(NC3CCS(=O)(=O)C3)n2)c2ccccc12)c1cc(F)cc(N2CCOCC2)c1 (stereo unspecified) | 150 to 151 |
| COc1ccc(-c2[nH]nc3c2C(=O)c2c(NC(=O)NNC(=O)c4ccccc4OC)cccc2-3)cc1 | 269 |
| COc1cccc(C=C2NC(=O)N(C)C2=O)c1 | 203 to 205 |
| O=C(Nc1ccc(Cl)cc1)Nn1cnc2c(O)cccc2c1=O | 266 to 268 |
| Nc1ccc(F)c(NC(=O)C(F)(F)F)c1 | 116 to 118 |
| Cc1cccc(C(=O)CCl)c1O | 65 to 66 |
| Nc1nc(N)nc(-c2nccc3ccccc23)n1 | > 250 |
| O=C1Nc2ccc(Cl)cc2C(OCc2ccccn2)(C(F)(F)F)CN1C1CC1 (stereo unspecified) | 170 to 172 |
| COc1ccc(C2=C(C#N)C(c3cccc4nonc34)c3c[nH]nc3N2)cc1 (stereo unspecified) | 244 |
| c1ccc(C(CC2CC3CCN2CC3)c2ccccc2)cc1 (stereo unspecified) | 87.5 to 89 |
| CC(=O)O[C@@H]1OCC[C@@H]1NC(=O)[C@H](CC(C)C)NC(=O)Nc1cccc2ccccc12 | 196 to 198 |
| COc1ccc2c(c1)c(CC(=O)Oc1ccc(CN3CCN(CC(C)(C)SN=O)CC3)cc1)c(C)n2C(=O)c1ccc(Cl)cc1 | 90 to 92 |
| Cc1ccc(N2CN(CCN(C)C)CN(C)C2=S)c(C)c1 | 65 to 70 |
| COc1ccc(-c2cccn2-c2ccc(S(C)(=O)=O)cc2)cc1 | 183 to 184 |
| COc1ccc(C2CNC(=O)C2)cc1OC(C)C(O)CN1CCN(c2ccccc2)CC1 (stereo unspecified) | 116 to 118 |
| COc1cc2cc(-c3ccc(OCC(O)CNC(C)(C)C)cc3)n(C)c(=O)c2cc1OC (stereo unspecified) | 165 to 166 |

| SMILES | melting point [°C] |
| --- | --- |
| NC(=O)Cc1ccc(CCCOCCCCCCBr)cc1 | 110 to 113 |
| OCc1cc(Cl)c(F)cn1 | 50 to 52 |
| Cn1cnc2c1c(=O)n(CCCO)c(=O)n2C | 139 to 140 |
| CC1=C(C(=O)OC(C)C)C(c2cccc([N+](=O)[O-])c2)N(C(N)=O)C(=O)N1 (stereo unspecified) | 160 to 161 |
| Cc1onc(-c2ccccc2Cl)c1CCC(=O)O | 79 to 81 |
| O=C(Nc1nc2ccccc2s1)c1cn(-c2ccccc2)c2ccccc2c1=O | 295 to 297 |
| CNC(=O)c1c(N)cccc1OC | 186 to 189 |
| COc1cc(-c2nc3cc(F)ccc3s2)ccc1OC(=O)c1cccc([N+](=O)[O-])c1 | 190 |
| CCCCNS(=O)(=O)c1ccc(N2CCC(=O)CC2)cc1 | 79 to 82 |
| Cc1ccc(CCCc2c(C)nc(N)nc2N)cc1 | 210 to 213 |
| Cc1cc2c(-c3ccccc3Cl)c(NC(=O)Nc3cccc(C(F)(F)F)c3)c(=O)n(C)c2cc1C | 175 to 176 |
| Cc1cnc2c(=O)[nH]c3ccccc3n12 | > 300 |
| CC(CC#N)N1C(=O)C2(OCCCO2)c2cc(Br)ccc21 (stereo unspecified) | 112 to 113 |
| Cc1cc(C(O)(c2cc(C)sc2C)c2cc(C)sc2C)c(C)s1 | 110 to 111 |
| O=C(NCc1ccccc1)c1ccnc(-n2ccc(O)cc2=O)c1 | 102 to 105 |
| C1=Cc2ccc3c(c2CC1)=C1CC=c2ccccc2=C1N=3 | 218 |
| CN1C(=O)CCC2(C)C1=CCC1C2CCC2(C)C(O)CCC12 (stereo unspecified) | 181 to 183 |
| COC(=O)c1ccc(O)cc1NC(=O)c1ccc(C(C)(C)C)cc1 | 146 to 148 |
| O=C1O[C@@H](Cn2ccnn2)CN1c1ccc(-c2ccc(C3=NOC(CS(=O)(=O)CCO)C3)nc2)c(F)c1 (stereo partly specified) | 210 |
| CCOC(=O)CC1NC(=O)c2ccccc21 (stereo unspecified) | 116 to 118 |
| CC(CO)CCCC(C)C1CCC2C3CC=C4C(C)(C)C(O)CCC4(C)C3CCC12C (stereo unspecified) | 174 to 175 |

The remaining lines, values ahead:

| melting point [°C] | SMILES |
| --- | --- |
| 246 to 248 | CCN1CCN(c2ccc(-c3ccc4c(Nc5ccc(Sc6nccn6C)c(Cl)c5)c(C#N)cnc4c3)nc2)CC1 |
| 140 to 144 | COc1ccc(C(C)N(C)CCCOc2ccc(S(=O)(=O)c3c(C(C)C)cn4ccccc34)cc2)cc1 (stereo unspecified) |
| 181 to 182 | Cc1nn(-c2ccc(F)cc2)cc1C(=O)Nc1ccc(OCC(C)(C)C)c(C#N)c1 |
| 204 to 207 | Cc1nnc2ccc(-c3cccc(N4CCCCC4=O)c3)nn12 |
| 148 to 150 | O=C1N(Cc2ccc(-c3ccccc3Cl)o2)c2ccccc2C12COc1cc3c(cc12)OCO3 (stereo unspecified) |
| 74 to 76 | CCOC(=O)CCc1ccc2c(CCC(=O)OCC)c(O)ccc2n1 |
| 150 | CCOC(=O)C(=O)Nc1cccc(NC(=O)C(=O)OCC)c1 |
| 137 to 138 | Cc1nc2c3c(ccn2c1C)[C@@](C)(O)[C@H](O)[C@@H](c1ccccc1)N3 |
| 205 to 206 | CC(=O)OCCn1ccc(=O)c(O)c1Cc1ccc(C)cc1 |
| 255 to 260 | CCCOc1ccccc1C1=NC(=O)C2=NC(C(F)(F)F)=NC2=N1 |
| 148 to 150 | CCOC(=O)C1CC(=O)c2nc(C)n(C)c2C1 (stereo unspecified) |
| 166 to 167 | COc1cc(CCC(=O)c2c(O)cc(O)c(CCC(C)C)c2O)cc(OC)c1O |
| > 300 | Nc1nc2c(=O)c3cc(Cl)ccc3oc2cc1-c1nnn[nH]1 |
| 121 | CC1CC(C)C(C)(C)c2ccc(-c3cccc(-c4ccc(C(=O)O)cc4)c3O)cc21 (stereo unspecified) |
| 90.5 to 91 | COc1cc2c(cc1OC)CCC=C2 |
| 258 | COC(=O)Nc1nc2ccc(OS(=O)(=O)c3ccc(-n4ccnc4)cc3)cc2[nH]1 |
| 208 | O=c1[nH]c(=O)n(C2CC(O)C(CF)O2)cc1C=CBr (stereo unspecified) |
| 302 to 304 | NS(=O)(=O)c1ccc(-c2[nH]c3ccc(F)cc3c2-c2ccccc2)cc1 |

| melting point [°C] | SMILES |
| --- | --- |
| 180 to 182 | CCOCCOc1cccc(-c2ccc3c(c2)C=C(C(=O)Nc2ccc(CN(C)C4CCOCC4)cc2)CCS3(=O)=O)c1 |
| 77 | O=C(c1ccccc1)c1ccc(N2CCCCC2)c([N+](=O)[O-])c1 |
| 94 to 95 | Cc1c(C)c2c(c(C)c1N)CC(C)(CN1CCN(c3ccccc3)CC1)O2 (stereo unspecified) |
| 70 to 73 | CCCCCCCCCCOc1ccc(-c2ccccc2)cc1 |
| 216 to 217 | O=C(c1ccc(CNc2nc(-c3ccccc3)nc3ccccc23)cc1)N1CCN(c2ncc(Cc3ccccc3)cn2)CC1 |
| 135 to 136 | Cc1cc2c(c(C)c1Br)C(c1ccccc1)CO2 (stereo unspecified) |
| 202 to 204 | CCCN(Cc1ccc(-c2ccccc2-c2nnn[nH]2)cc1)c1ncccc1C(=O)O |
| 221 to 223 | CCN1CCN(Cc2ccc3c(c2)-c2[nH]nc(-c4ccsc4)c2C3)CC1 |
| 116 to 122 | CCCCc1nc2c(OC)ccc(CCN(C)C)c2[nH]1 |
| 125 to 126 | CCNC(=O)N1CC(Oc2cccc(C(F)(F)F)c2)C1 |
| 148 | COC(=O)Cc1cc(O)n(C)n1 |
| 193 to 195 | O=C(Nc1ccc2cc(CN3CCCC3)ccc2c1)N1CCC(c2ccccc2)CC1 |
| 206 to 207 | CNC(=O)c1cccc(C2=NC(C)(C)Cc3cc(OC)c4c(c32)CC(C)(C)O4)c1 |
| 120 | COc1ccc(C=O)cc1C |
| 222 to 225 | NC(=O)CNC(=O)c1cc2c(Oc3ccc(Cl)cc3)cncc2s1 |
| 147 to 148 | COc1cc(N)c(Cl)cc1C(=O)NCC1CCN(CCCS(=O)(=O)Cc2ccc(F)cc2)CC1 |
| 86 to 87 | CN(C)C(=O)c1cnn2ccccc12 |
| 111 to 112 | COC(=O)c1ccc(COC(C)=O)nc1C1=NC(C)(C(C)C)C(=O)N1C(C)=O (stereo unspecified) |
